Experimental findings from US8541379B2 (Ajinomoto Co., Inc., priority 2009, dated 2013) are described below.

A short description of assay [1]: Paired comparison sensory test, solution of miso. The class given is in vivo, human. The following applies: 10.0% miso solution, N=9. How it is done:
More specifically, the sensory evaluation test was carried out according to the following procedures: Commercially available miso (ingredients: soybeans and barley) for popular use was dispersed in hot water in a concentration of 10.0% by mass to thus form a solution of miso. This solution was admixed with γ-Glu-Nva, γ-Glu-Cys-Gly, or γ-Glu-Abu as a test compound. According to the paired comparison test method (pair test), the panelists were requested to comparatively evaluate the following three samples and to judge whether “any of them was preferred or favorable since it could enhance the flavor and taste of the solution of miso without changing the balance between them”: (1) 0.02% by mass of γ-Glu-Cys-Gly whose kokumi-imparting activity was identical to 0.0004% by mass of γ-Glu-Nva; (2) 0.0004% by mass of γ-Glu-Abu, the amount of which was identical to 0.0004% by mass of γ-Glu-Nva; (3) 0.003% by mass of γ-Glu-Abu whose kokumi-imparting activity was identical to that observed for 0.0004% by mass of γ-Glu-Nva. The panelists used in this test were persons who had been engaged in the development of seasonings for foods over not less than one year of the cumulative time period and who could judge that the difference in the titer between γ-Glu-Cys-Gly and γ-Glu-Val-Gly added to a solution having umami/salty taste is about 10 times (while confirming the ability of these persons at regular intervals). The evaluation was carried out at N (the number of panelists used)=9.

A further assay has as its target T1, human CaSR (Homo sapiens, UniProt P41180, E1011Q).
T1 construct: expressed in transfected cells; host or cells: 293E cells (EBNA1-expressing HEK293, ATCC CRL-10852), transient transfection with Fugene6
T1 sequence (P41180 20-1078 E1011Q): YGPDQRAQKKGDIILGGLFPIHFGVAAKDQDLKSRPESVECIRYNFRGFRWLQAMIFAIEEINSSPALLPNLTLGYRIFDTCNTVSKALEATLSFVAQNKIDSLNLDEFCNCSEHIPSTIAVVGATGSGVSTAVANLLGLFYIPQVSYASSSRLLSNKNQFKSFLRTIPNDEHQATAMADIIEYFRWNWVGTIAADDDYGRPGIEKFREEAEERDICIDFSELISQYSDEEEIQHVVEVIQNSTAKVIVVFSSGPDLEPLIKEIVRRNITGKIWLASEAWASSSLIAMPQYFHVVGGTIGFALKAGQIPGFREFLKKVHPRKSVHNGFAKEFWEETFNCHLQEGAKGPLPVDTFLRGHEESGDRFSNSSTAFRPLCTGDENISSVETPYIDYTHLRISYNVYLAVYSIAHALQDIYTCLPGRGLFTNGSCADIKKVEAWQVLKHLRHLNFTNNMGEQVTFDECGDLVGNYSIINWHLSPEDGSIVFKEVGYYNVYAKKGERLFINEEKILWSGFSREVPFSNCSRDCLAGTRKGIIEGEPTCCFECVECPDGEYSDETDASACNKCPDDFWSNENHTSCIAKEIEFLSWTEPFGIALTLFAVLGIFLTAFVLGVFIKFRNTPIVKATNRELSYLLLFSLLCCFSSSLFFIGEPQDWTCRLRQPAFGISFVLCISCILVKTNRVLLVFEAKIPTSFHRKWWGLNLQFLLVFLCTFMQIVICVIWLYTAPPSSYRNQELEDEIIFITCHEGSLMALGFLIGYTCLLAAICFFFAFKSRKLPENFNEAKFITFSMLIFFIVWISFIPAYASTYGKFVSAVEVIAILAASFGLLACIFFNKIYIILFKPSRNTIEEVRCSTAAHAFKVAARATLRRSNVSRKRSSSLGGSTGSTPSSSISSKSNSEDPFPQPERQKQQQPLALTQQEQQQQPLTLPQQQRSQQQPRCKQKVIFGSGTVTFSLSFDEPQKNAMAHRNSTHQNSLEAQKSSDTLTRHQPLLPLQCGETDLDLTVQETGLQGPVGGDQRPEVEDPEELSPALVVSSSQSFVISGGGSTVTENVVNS
Put plainly: Evaluation of CaSR agonist activity (Ca2+ fluorescence, hCaSR-transfected 293E cells). The assay is classed as cell-based. How it is done:
293E Cells (EBNA1-expresion HEK293 cells, ATCC No. CRL-10852) were cultivated in DMEN/Ham's-F12 (3.15/mL glucose-containing Dulbecco's modified Eagle medium, available from Nakaraitesk Company) supplemented with 10% fetal calf serum, in the presence of 200 μg/mL of G418 (available from Genetisin). The cultured cells were inoculated in F25 flask at a density of 3×10^6 cells/10 mL, the flask was allowed to stand over 24 hours in a CO2 incubator (5% CO2, 37° C.), and then the human CaSR-expression plasmid hCaSR/pcDNA3.1 was transformed or transfected with a reagent for transfection Fugene6 (available from Roche Company). The transfected plasmid was maintained in a CO2 incubator for 6 to 7 hours, then the cells were recovered using a 10% fetal calf serum-containing DMEM/Ham's-F12 and the cells were inoculated in each well of a poly-D-lysine coat 96-well plate (BD-Biocoat) at a density of 70,000 cells/well.
To each well of the 96-well plate, each test compound was dissolved in a 0.1% BSA-containing Assay Buffer in an amount of 50 μl/well, and then any change of the intensity of fluorescence was monitored over 3 minutes using FLEX Station (available from Molecular Devices Company).
Method for the Determination of EC50:
The difference (RFU (Max-Min)) between the maximum and minimum fluorescent intensities observed for each well before and after the addition of each specific test compound was determined by the automatic calculation using FLEX Station. The activity rate was calculated while the RFU (Max-Min) value observed when adding the compound at the maximum concentration was defined to be 100% and the RFU (Max-Min) value observed when using the 0.1% BSA-containing Assay Buffer free of any test compound was defined to be 0%, followed by subjecting the resulting data to the curve-fitting procedures using the spreadsheet software Xfit or Graph-Pad-Prism to thus determine the EC50 which was the concentration of the compound at the activity rate of 50%.
In addition, the same EC50-determining procedures used above were repeated except for using other dipeptides as Comparative Examples.

What is called EC50 is the concentration needed to bring the measured effect to its halfway point.

Marks after values point to notes of the source that are not given here.

For the compound `CCC[C@H](NC(=O)CC[C@H](N)C(=O)O)C(=O)O` [γ-Glu-Nva, γ-L-glutamyl-L-norvaline], the “No. of Panelists who judged γ-Glu-Nva rather preferred” value was 9/9*** in assay [1] (0.0004 wt % γ-Glu-Nva vs 0.0004 wt % γ-Glu-Abu, significant level of 1%); 9/9*** in assay [1] (0.0004 wt % γ-Glu-Nva vs 0.003 wt % γ-Glu-Abu, significant level of 1%); 8/9** in assay [1] (0.0004 wt % γ-Glu-Nva vs 0.02 wt % γ-Glu-Cys-Gly, significant level of 5%). Moreover, the EC50 at human CaSR (293E cells transfected with hCaSR/pcDNA3.1, Calcium 4 fluorescence, FLEX Station) was determined as 120 nM. In addition, the CaSR agonist activity result on human CaSR (compared with other dipeptides) is given as “strong CaSR agonist activity comparable to that observed for γ-Glu-Cys”.
